The results in this text go back to patent publication US10941187B2 (The United States of America, as represented by the …, priority 2001, dated 2021).

SMILES strings stand for the structures.

Data set [1] deals with Aβ1-40. Description: Aβ1-40 sandwich ELISA of PC12 conditioned media. It counts as cell-based, rat. The settings on record: PC12 cells, relative to control cells. On the technique in general: ELISA stands for enzyme-linked immunosorbent assay.
Data set [2] concerns Beta-2/NeuroD. Put plainly: Beta-2/NeuroD expression in PC12 cells (Western blot). The settings on record: PC12 cell lysates. It counts as cell-based, rat. The text has this:
Beta-2/NeuroD plays a major role in both neuronal and pancreatic endocrine development. […] Beta-2 expression in pancreatic endocrine cells, the intestine and the brain, activates insulin gene transcription and can induce neurons to differentiate. Mutant mice lacking the functional Beta-2 gene have a striking reduction in the number of insulin-producing beta cells, fail to develop mature islets and as a consequence develop severe diabetes often resulting in perinatal death (Naya et al 1997). Thus, Beta-2/NeuroD is essential for in vivo pancreatic development and neuronal differentiation.
NeuroD production was determined by Western blot analysis using anti-NeuroD antibody as described above for synaptophysin antibody, except peroxidase-linked anti-goat IgG (Santa Cruz Biotechnology Inc.) was used as the secondary antibody. […] Indeed, Noma et al (1999) have shown that overexpression of NeuroD in transfected PC12 cells induced morphological changes such as neurite-like processes and synapse-like structures, without a differentiating-inducing agent such as NGF.
A general note: In western blotting, separated proteins are transferred to a membrane and probed.

In data set [3] the test system is synaptophysin. Put plainly: Synaptophysin expression in PC12 cells (Western blot). The class given is cell-based, rat. The settings on record: PC12 cell lysates, relative to untreated. As for the experimental part: The synaptophysin monoclonal antibody (Oncogene Research Products, San Diego Calif.), which stains neurosecretory vesicles of PC12 cells, was used. The membranes were blocked with 20 mM Tris, 500 mM NaCl pH 7.4, 1% (w/v) casein (BioRad, San Diego Calif.) at 37° C. for 1 hour. Primary antibody was diluted in block and incubated with the proteins overnight at 4° C. The membrane was vigorously washed with 20 mM Tris pH 7.4, 150 mM NaCl and 0.05% Tween-20 (TBST), three times for 15 minutes at room temperature. The peroxidase-linked secondary antibody in block was incubated with the membrane for 2 hours at room temperature. Peroxidase-linked anti-mouse IgM (Chemicon, Tenecula, Calif.) was used as the secondary antibody against synaptophysin. Excess antibody was washed off with three vigorous washes in TBST prior to incubation in ECL Plus (Amersham, Philadelphia, Pa.) for 5 minutes. The membrane was subsequently exposed to photographic film.

Data set [4] relates to cultured hippocampal neurons. Put plainly: Glutamate-induced apoptotic cell death in hippocampal neurons (Hoechst 33342). The settings on record: GLP-1 10 nM. The class given is cell-based, rat. As for the experimental part: The fluorescent DNA binding dye Hoescht 33342 was used to measure apoptotic cell death. […] Cells were fixed in a solution of 4% paraformaldehyde in PBS and membranes were permeabilized with 0.2% Trition X-100. Following incubation with Hoechst 33342 (1 μM) for 30 min, nuclei were visualized under epifluorescence illumination (340 nm excitation, 510 nm barrier filter) using a 40× oil-immersion objective. Approximately 200 cells were counted in at least three separate dishes for each treatment condition, and experiments were repeated at least twice. Cells were considered apoptotic if nuclear DNA was fragmented or condensed, whereas cells with nuclear DNA of a more diffuse and uniform distribution, were considered viable. At the time of counting, the investigator was unaware of the identity of the treatment groups. The percentage of cells with condensed or fragmented nuclei was determined in each culture.

Data set [5] can be described thus: Stability in human serum by MALDI mass spectrometry. The class given is in vitro ADME. The settings on record: 100% serum, 2 h at 37° C. As for the experimental part: Both compounds (100 μM, 100 μl ) were incubated in an equivalent volume of human serum at 37° C. for 2 h. In all cases, enzymatic reactions were quenched by the addition of trifluoroacetic acid (0.1% v/v final concentration). Samples were immediately analyzed using Matrix Assisted […] Desorption Ionisation-Time Of Flight (MALDI-TOF) mass spectrometry. A Micromass MALDI-TOF (Micromass, Beverly, Mass.) reflectron instrument was used at a laser energy of 15-25% over a mass range of 1000-6000 Da, with 5 laser shots summed per spectrum. Alpha-cyano-4-hydroxycinnamicacid (Sigma, St. Louis, Mo.) was used as a matrix and was prepared to a concentration of 10 mg/ml in a 8 mg/ml ammonium carbonate (Sigma, St. Louis, Mo.) buffer. One microlitre samples were diluted 50/50 v/v with matrix before being transferred to the MALDI plate.

The subject of data set [6] is Fischer-344 rats. Put plainly: Ibotenic acid induced cholinergic marker deficit, i.c.v. infusion.
Data set [7] has as its system β-amyloid precursor protein (βAPP). Description: Western immunoblot of βAPP (cell lysates) and sAPP (conditioned media) in PC12 cells. The settings on record: day 3, relative to untreated.
For data set [8], the system named is Aβ1-40. Put plainly: Aβ1-40 in whole brain homogenates after i.c.v. infusion in control mice. The class given is in vivo, mouse. The settings on record: 48 h. As for the experimental part:
Lean db+/db+ control male mice (n=24) were anaesthetized with 50 mg/kg pentobarbitone and placed in a stereotaxic surgical frame with mouse adaptor (David Kopf Instruments, Tujunga, Calif.) using temporal bone cup holders. […] After 48 h all animals were sacrificed by cervical dislocation, the brains removed and rapidly frozen in liquid nitrogen. Brains were pulverized and stored at −80° C. prior to assaying for Aβ levels.
Equivalent volumes of conditioned media and whole brain homogenate were assayed for Aβ1-40 using a sandwich ELISA (Suzuki et. al., 1994). The monoclonal antibody BAN50 (raised against Aβ1-16) was used as the capture antibody for all species of Aβ (Aβ1-40 and Aβ1-42), and the monoclonal antibody BA27 was used to specifically detect Aβ1-40 levels. Levels of Aβ1-40 were expressed in pM concentrations for conditioned media samples and finol/g for the mouse brain homogenates, as deduced from the appropriate standard curve run in parallel with the assay.

In data set [9] the test system is cultured hippocampal cells. Put plainly: Survival of hippocampal neurons exposed to Aβ1-42 or Fe2+. Particulars: 2 h pretreatment, then 2 μM Aβ (1-42) or 1 μM Fe2+ for 24 hours. It counts as cell-based, rat. As for the experimental part:
Hippocampi were removed from embryonic day 18 Sprague-Dawley rats, and cells were dissociated by mild trypsination and trituration and seeded onto polyethyleneimine-coated plastic 35 mm diameter dishes at a density of approximately 150 cells/mm^2 of culture surface. Cultures-were maintained in Neurobasal medium containing B-27 supplements (Gibco BRL, Carlsbad, Calif.), 2 mM L-glutamine, 1 mM Hepes and 0.001% gentamicin sulfate (Sigma, St. Louis, Mo.) in a 6% CO2/94% room air atmosphere at 37° C. When maintained under these conditions, the hippocampal cultures consisted of approximately 95% neurons and 5% astrocytes as determined by immunostaining with antibodies against the neuronal antigen NeuN and the astrocyte protein glial fibrillary acidic protein. Aβ1-42 was purchased from Bachem (Torrance, Calif.) and was prepared as a 1 mM stock solution in sterile water. FeSO4 was prepared as a 200 μM stock in sterile water.
Neuronal survival was quantified as described previously (Mark et. al., 1997). Briefly, viable neurons in premarked fields (10× objective) were counted before experimental treatment and at specified time points thereafter. […] Cultures were then exposed to 2 μM Aβ (1-42) or 1 μM Fe^2+ for 24 hours. […]

Data set [10] concerns PC12 cells. Put plainly: Neurite outgrowth in PC12 cells. The class given is cell-based, rat. Particulars: low serum medium. As to the method:
Three dishes for each treatment condition were prepared. Treatments began 24 hours after seeding, once cells were well attached.
PC12 cells were grown on 60 mm dishes as above and cultured for four days. During this time neurite outgrowth was quantified daily. Five random fields of cells were evaluated per dish and the proportion of neurite-bearing cells was determined. Approximately 100 cells per field were scored for neurites equal to or greater in length than that of the cell body. A cell was only scored once, although it may have had more than one process per cell.

Take `CC[C@H](C)[C@H](NC(=O)[C@H](Cc1ccccc1)NC(=O)[C@H](CCC(=O)O)NC(=O)[C@H](CCCCN)NC(=O)[C@H](C)NC(=O)[C@H](C)NC(=O)[C@H](CCC(N)=O)NC(=O)CNC(=O)[C@H](CCC(=O)O)NC(=O)[C@H](CC(C)C)NC(=O)[C@H](Cc1ccc(O)cc1)NC(=O)[C@H](CO)NC(=O)[C@H](CO)NC(=O)[C@@H](NC(=O)[C@H](CC(=O)O)NC(=O)[C@H](CO)NC(=O)[C@@H](NC(=O)[C@H](Cc1ccccc1)NC(=O)[C@@H](NC(=O)CNC(=O)[C@H](CCC(=O)O)NC(=O)[C@H](C)NC(=O)[C@@H](N)Cc1c[nH]cn1)[C@@H](C)O)[C@@H](C)O)C(C)C)C(=O)N[C@@H](C)C(=O)N[C@@H](Cc1c[nH]c2ccccc12)C(=O)N[C@@H](CC(C)C)C(=O)N[C@H](C(=O)N[C@@H](CCCCN)C(=O)NCC(=O)N[C@@H](CCCNC(=N)N)C(N)=O)C(C)C` [GLP-1, glucagon-like peptide-1]: the “Aβ1-40 levels in conditioned media” value in data set [1] is “did not significantly alter levels of Aβ1-40 production”. Besides, the “Beta-2/NeuroD expression (43 kDa band)” value in data set [2] is given as “increased following GLP-1 treatment”. The synaptophysin expression result in data set [3] is on record as “dramatically reduced the expression of the synaptophysin protein”. Also, the “apoptotic cells, concurrent treatment with glutamate” value in data set [4] (10 μM glutamate overnight, exendin-4 0.3 μM (medium alone 23%, glutamate 73%)) is 24%. Moreover, in [4] (10 μM glutamate, exendin-4 0.3 μM), the “protection against apoptotic effects of glutamate” value is given as “completely protected”. Also, the “apoptotic cells, peptide alone” value in data set [4] (exendin-4 0.3 μM, no glutamate) stood at 20%. Also, in [5], the “stability in human serum (N-terminal truncated product by MALDI)” value is reported as “considerable increase in the amount of N-terminal truncated product”. Further, the results for the “Abercrombie corrected ChAT-positive cell counts, Left basal nucleus (lesion side)” value in data set [6] (Lesion (ibotenic acid)) and in [6] (Sham) were 404 ± 59 and 517 ± 50, respectively. The “Abercrombie corrected ChAT-positive cell counts, Right basal nucleus (infusion side)” value in [6] (Lesion (ibotenic acid)) was 423 ± 45; in data set [6] (Sham), 499 ± 41. Further, the “food and water intake, body weight during infusion” value in data set [6] (i.c.v. minipump infusion) is “modestly aphagic and adipsic”. Further, the “loss of ChAT-immunoreactive cell bodies in left basal nucleus below that of the right basal nucleus” value in data set [6] (ibotenic acid lesion, 14 days i.c.v. infusion (vehicle 43%)) is 6%. Also, in data set [7], the “intracellular levels of βAPP (cell lysates)” value was “significantly decreased intracellular levels of βAPP”. Moreover, the “reduction of Aβ1-40 levels compared to vehicle” value in [8] (3.3 μg GLP-1 i.c.v., not significant) turned out to be 16%; in data set [8] (6.6 μg GLP-1 i.c.v., p<0.01), 36%. Further, the “concentration of maximum protective effect against death induced by Aβ1-42 and Fe2+” value in data set [9] came out at 10 nM. The “differentiation / neurite outgrowth” value in data set [10] was “produced similar effects on differentiation to those induced by NGF”.
